Where two headings read alike, the source gives them in different places.
Tests used:
PI3K-gamma = PI3K-gamma (Homo sapiens, UniProt P48736); assay: Fluorescence polarization assay for PI3K; format: biochemical; conditions: 25 μM ATP, diC8-PI(4,5)P2 substrate; read-out: PI3 Kinase γ IC50
Procedure: (§1) Fluorescence Polarization Assay for PI3K
(§2) Reaction Buffer: 20 mM HEPES, pH 7.5, 2 mM MgCl2, 0.05% CHAPS; and 0.01% BME (added fresh) Stop/Detection Buffer: 100 mM HEPES, pH 7.5, 4 mM EDTA, 0.05% CHAPS; ATP 20 mM in water; PIP2 (diC8, Echelon, Salt Lake City Utah, cat# P-4508) 1 mM in water (MW=856.5); GST-GRP 1.75 mg/mL or 1.4 mg/mL in 10% glycerol; Red detector (TAMRA) 2.5 μM; Plate: Nunc 384 well black polypropylene fluorescence plate.
(§3) PI3-Kinase reactions were performed in […], pH 7, […], and 25 μM ATP, with diC8-PI(4,5)P2 (Echelon, Salt Lake City Utah) as substrate. Nunc 384 well black polypropylene fluorescent plates were used for PI3K assays. Reactions were quenched by the addition of EDTA to a final concentration of […]. Final reaction volumes were 10 μl. For evaluation of PI3K inhibitors, 5 ng of enzyme (PI3K-alpha, beta, gamma, or delta) and 2.5 μM of substrate was used per […] reaction volume, and inhibitor concentrations ranged from 100 pM to 20 μM; the final level of DMSO in reactions never exceeded 2%. Reactions were allowed to proceed for one hour at 25° C. After 1 hour, GST-tagged GRP1 (general receptor for phosphoinositides) PH domain fusion protein was added to a final concentration of 100 nM, and BODIPY-TMRI(1,3,4,5)P4 (Echelon) was also added to a final concentration of 5 nM. Final sample volumes were 25 μl with a final DMSO concentration of 0.8%. Assay Plates were read on PerkinElmer Envision plate readers with appropriate filters for Tamra [BODIPY-TMRI(1,3,4,5)P4]. Data obtained were used to calculate enzymatic activity and enzyme inhibition by inhibitor compounds.

PI3K-alpha = PI3K-alpha (Homo sapiens, UniProt P42336); assay: Fluorescence polarization assay for PI3K; format: biochemical; conditions: 25 μM ATP, diC8-PI(4,5)P2 substrate; read-out: PI3 Kinase α IC50
Procedure: as §1, §2, §3

human TOR (FLAG-TOR) = molecular target: T1, human TOR (FLAG-TOR) (Homo sapiens, UniProt P42345); assay: mTOR kinase assay, purified enzyme, DELFIA format; format: biochemical; conditions: 100 μM ATP, His6-S6K substrate
T1 construct: FLAG

PC3-MM2 cells = assay: In vitro cell culture growth assay (MTS); format: cell-based; conditions: Homo sapiens, PC3MM2, 72 h, growth inhibition, three days after drug treatment
Procedure: (§4) Cell lines used were human adenocarcinoma (LoVo), pancreatic […], prostate (LNCap), breast (MDA468, MCF7), colon (HCT116), renal (HTB44 A498), and ovarian (OVCAR3) tumor cell lines. The tumor cells were plated in 96-well culture plates at approximately 3000 cells per well. One day following plating, various concentrations of PI3K inhibitors in DMSO were added to cells (final DMSO concentration in cell assays was 0.25%). Three days after drug treatment, viable cell densities were determined by cell mediated metabolic conversion of the dye MTS, a well-established indicator of cell proliferation in vitro. Cell growth assays were performed using kits purchased from Promega Corporation (Madison, Wis.), following the protocol provided by the vendor. Measuring absorbance at 490 nm generated the MTS assay results. Compound effect on cell proliferation was assessed relative to untreated control cell growth.

[1] = tested on: OVCAR3 ovarian tumor cell line; assay: In vitro cell culture growth assay (MTS); format: cell-based; conditions: Homo sapiens, OVCAR-3, 72 h, growth inhibition, three days after drug treatment
Procedure: as §4

[2] = tested on: acute lymphoblastic leukemia; conditions: NOS/SCID mouse; cited from earlier work
[3] = tested on: human tumor xenograft models; conditions: cited from earlier work
mTOR enzymes = mTOR enzymes (Homo sapiens, UniProt P42345); conditions: read-out: mTOR enzymes IC50; literature value; cited from earlier work

PI3K-gamma, sequence (P48736 whole entry): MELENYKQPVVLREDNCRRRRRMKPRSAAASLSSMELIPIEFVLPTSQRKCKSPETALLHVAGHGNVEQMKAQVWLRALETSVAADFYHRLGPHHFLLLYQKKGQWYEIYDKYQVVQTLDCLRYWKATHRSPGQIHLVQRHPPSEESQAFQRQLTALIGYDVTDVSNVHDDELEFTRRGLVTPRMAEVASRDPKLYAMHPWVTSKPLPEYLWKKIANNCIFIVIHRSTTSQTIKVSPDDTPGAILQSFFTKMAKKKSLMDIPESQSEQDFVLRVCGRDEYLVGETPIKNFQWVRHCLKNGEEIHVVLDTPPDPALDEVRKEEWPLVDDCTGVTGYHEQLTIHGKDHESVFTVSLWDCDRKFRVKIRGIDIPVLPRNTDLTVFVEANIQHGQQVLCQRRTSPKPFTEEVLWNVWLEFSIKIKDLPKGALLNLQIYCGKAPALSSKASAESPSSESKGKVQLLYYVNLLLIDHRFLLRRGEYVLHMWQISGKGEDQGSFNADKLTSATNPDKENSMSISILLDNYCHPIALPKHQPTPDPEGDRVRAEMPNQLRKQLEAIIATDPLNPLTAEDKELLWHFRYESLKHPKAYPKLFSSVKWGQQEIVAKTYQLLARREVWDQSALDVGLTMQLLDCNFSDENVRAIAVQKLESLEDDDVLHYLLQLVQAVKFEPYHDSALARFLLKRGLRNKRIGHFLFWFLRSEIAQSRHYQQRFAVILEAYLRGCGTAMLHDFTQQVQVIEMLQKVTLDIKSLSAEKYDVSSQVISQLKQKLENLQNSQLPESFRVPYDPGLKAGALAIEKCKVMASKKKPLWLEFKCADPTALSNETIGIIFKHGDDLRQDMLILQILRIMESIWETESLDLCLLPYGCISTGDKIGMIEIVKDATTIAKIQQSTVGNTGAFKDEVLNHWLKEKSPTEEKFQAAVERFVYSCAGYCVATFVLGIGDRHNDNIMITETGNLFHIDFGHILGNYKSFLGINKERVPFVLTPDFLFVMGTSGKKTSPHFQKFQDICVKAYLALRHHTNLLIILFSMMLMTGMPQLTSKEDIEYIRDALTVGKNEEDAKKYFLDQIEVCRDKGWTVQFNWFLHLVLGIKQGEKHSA
PI3K-alpha, sequence (P42336 whole entry, species assumed): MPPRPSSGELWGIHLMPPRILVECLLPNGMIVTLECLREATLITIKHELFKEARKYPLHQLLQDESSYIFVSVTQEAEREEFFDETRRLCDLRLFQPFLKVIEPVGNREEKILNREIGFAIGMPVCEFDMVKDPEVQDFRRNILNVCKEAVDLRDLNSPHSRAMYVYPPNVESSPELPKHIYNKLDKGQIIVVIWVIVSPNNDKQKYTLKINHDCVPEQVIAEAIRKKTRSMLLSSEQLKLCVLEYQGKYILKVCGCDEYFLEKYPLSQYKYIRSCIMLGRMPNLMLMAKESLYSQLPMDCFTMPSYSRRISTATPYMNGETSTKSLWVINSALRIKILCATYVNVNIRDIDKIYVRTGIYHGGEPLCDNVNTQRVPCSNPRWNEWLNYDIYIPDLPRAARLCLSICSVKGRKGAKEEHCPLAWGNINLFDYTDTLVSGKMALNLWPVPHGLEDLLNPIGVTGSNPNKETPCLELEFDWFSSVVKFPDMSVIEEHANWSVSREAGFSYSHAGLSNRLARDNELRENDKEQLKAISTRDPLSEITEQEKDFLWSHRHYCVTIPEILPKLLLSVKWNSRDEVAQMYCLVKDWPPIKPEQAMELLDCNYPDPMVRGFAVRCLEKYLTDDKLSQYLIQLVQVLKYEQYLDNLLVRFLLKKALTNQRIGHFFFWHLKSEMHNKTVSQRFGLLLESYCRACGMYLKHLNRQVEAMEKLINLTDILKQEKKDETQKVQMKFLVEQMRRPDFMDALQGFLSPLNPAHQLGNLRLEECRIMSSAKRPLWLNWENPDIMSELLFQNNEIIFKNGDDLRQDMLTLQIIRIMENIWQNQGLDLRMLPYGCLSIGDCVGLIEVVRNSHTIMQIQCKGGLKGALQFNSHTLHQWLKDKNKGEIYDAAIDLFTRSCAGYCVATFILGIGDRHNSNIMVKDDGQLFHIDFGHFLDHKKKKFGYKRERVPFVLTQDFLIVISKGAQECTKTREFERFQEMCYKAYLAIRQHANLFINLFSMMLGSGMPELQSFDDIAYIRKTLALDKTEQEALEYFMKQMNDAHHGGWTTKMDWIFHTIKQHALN
PI3K-alpha, sequence (P27986 whole entry partner, species assumed): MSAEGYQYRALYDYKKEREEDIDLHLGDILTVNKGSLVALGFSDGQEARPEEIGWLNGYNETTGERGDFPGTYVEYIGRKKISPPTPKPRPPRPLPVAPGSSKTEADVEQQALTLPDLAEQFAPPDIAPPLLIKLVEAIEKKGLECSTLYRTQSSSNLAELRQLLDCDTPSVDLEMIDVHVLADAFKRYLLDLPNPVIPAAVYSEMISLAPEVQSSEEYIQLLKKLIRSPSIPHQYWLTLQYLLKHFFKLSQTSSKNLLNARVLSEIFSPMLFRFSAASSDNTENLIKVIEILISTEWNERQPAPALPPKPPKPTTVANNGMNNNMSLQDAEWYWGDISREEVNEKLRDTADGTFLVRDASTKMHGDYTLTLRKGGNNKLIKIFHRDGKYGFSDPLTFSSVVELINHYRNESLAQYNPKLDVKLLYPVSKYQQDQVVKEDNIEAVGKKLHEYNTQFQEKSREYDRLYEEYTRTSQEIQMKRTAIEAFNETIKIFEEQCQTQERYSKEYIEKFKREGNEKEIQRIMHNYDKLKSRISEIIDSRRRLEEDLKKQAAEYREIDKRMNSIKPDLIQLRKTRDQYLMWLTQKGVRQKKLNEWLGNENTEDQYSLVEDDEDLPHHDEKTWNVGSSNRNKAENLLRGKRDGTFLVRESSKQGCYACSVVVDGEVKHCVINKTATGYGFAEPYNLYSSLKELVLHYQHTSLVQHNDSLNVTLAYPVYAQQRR

| SMILES | IC50 (PI3K-gamma) | IC50 (PI3K-alpha) | IC50 (human TOR (FLAG-TOR)) | IC50 (PC3-MM2 cells) | IC50 [1] | activity in xenograft mouse model of acute lymphoblastic leukemia [2] | tumor growth in mouse human xenograft cancer models ([3]; chronic oral administration, 400 mg/kg, A549, PC-3, WiDr) | IC50 (mTOR enzymes) | activity in human tumor xenograft models ([3]; I.P. dosing in mice, U87MG, PC3, MDA-MB-468, MDA-MB-435, HCT 116, SKOV3, IGROV-1) | activity in human tumor xenograft models ([3]; prostrate (PC-3) and glioblastoma (U-87)) |
| --- | --- | --- | --- | --- | --- | --- | --- | --- | --- | --- |
| COc1ccc2c(c1)c(/C=C1\Oc3cc(O)cc(O)c3C1=O)c1n2CCN(C)C1=O [Q, 10-[(Z)-(4,6-dihydroxy-3-oxo-1-benzofuran-2(3H)-ylidene)methyl]-8-methoxy-2-methyl-3,4-dihydropyrazino[1,2-a]indol-1(2H)-one] | 27 nM | 3 nM | 4 nM | 5050 nM | 3600 nM |  |  |  |  |  |
| COc1ccc2c(c1)c(/C=C1\Oc3cc(O)cc(O)c3C1=O)c1n2CCNC1 [K, (2Z)-4,6-dihydroxy-2-[(8-methoxy-1,2,3,4-tetrahydropyrazino[1,2-a]indol-10-yl)methylene]-1-benzofuran-3(2H)-one] | 116 nM | 5.5 nM | 9 nM | 2190 nM | 1620 nM |  |  |  |  |  |
| COc1ccc2c(c1)c(/C=C1\Oc3cc(O)cc(O)c3C1=O)c1n2CCN(C)C1 [P, (2Z)-4,6-dihydroxy-2-[(8-methoxy-2-methyl-1,2,3,4-tetrahydropyrazino[1,2-a]indol-10-yl)methylene]-1-benzofuran-3(2H)-one] | 30.5 nM | 6 nM | 9 nM | 1610 nM | 1670 nM |  |  |  |  |  |
| COc1ccc2c(c1)c(/C=C1\Oc3cc(O)ccc3C1=O)c1n2CCNC1 [L, (2Z)-6-hydroxy-2-[(8-methoxy-1,2,3,4-tetrahydropyrazino[1,2-a]indol-10-yl)methylene]-1-benzofuran-3(2H)-one] | 116 nM | 16.5 nM | 320 nM | 1510 nM | 780 nM |  |  |  |  |  |
| CO[C@H]1C[C@@H]2CC[C@@H](C)[C@@](O)(O2)C(=O)C(=O)N2CCCC[C@H]2C(=O)O[C@H]([C@H](C)C[C@@H]2CC[C@@H](OC(=O)C(C)(CO)CO)[C@H](OC)C2)CC(=O)[C@H](C)/C=C(\C)[C@@H](O)[C@@H](OC)C(=O)[C@H](C)C[C@H](C)/C=C/C=C/C=C/1C [Torisel] |  |  |  |  |  | active |  |  |  |  |
| FC(F)c1nc2ccccc2n1-c1nc(N2CCOCC2)nc(N2CCOCC2)n1 [ZSTK474, 2-(2-difluoromethylbenzoimidazol-1-yl)-4,6-dimorpholino-1,3,5-triazine] |  |  |  |  |  |  | completely inhibited growth | > 10000 nM |  |  |
| COc1ccc2c(c1)c(/C=C1\Oc3cc(O)ccc3C1=O)c1n2CCOC1=O [J, 10-[(Z)-(6-hydroxy-3-oxo-1-benzofuran-2(3H)-ylidene)methyl]-8-methoxy-3,4-dihydro-1H-[1,4]oxazino[4,3-a]indol-1-one] | 76.5 nM | 21.5 nM | 114 nM | > 10000 nM | 5280 nM |  |  |  |  |  |
| COc1ccc2c(c1)c(/C=C1\Oc3cc(O)cc(O)c3C1=O)c1n2CCNC1=O [N, 10-[(Z)-(4,6-dihydroxy-3-oxo-1-benzofuran-2(3H)-ylidene)methyl]-8-methoxy-3,4-dihydropyrazino[1,2-a]indol-1(2H)-one] | 24.5 nM | 2.5 nM | < 32 nM | > 10000 nM | 4950 nM |  |  |  |  |  |
| COc1ccc2c(c1)c(/C=C1\Oc3cc(O)ccc3C1=O)c1n2CCC1 [O, (2Z)-6-hydroxy-2-[(7-methoxy-2,3-dihydro-1H-pyrrolo[1,2-a]indol-9-yl)methylene]-1-benzofuran-3(2H)-one] | 76 nM | 14 nM | 66 nM | 3400 nM | 3720 nM |  |  |  |  |  |
| Oc1cccc(-c2nc(N3CCOCC3)c3oc4ncccc4c3n2)c1 [Example P1103, 3-(4-(4-morpholinyl)pyrido[3′,2′:4,5]furo[3,2-d]pyrimidin-2-yl)phenol] |  |  |  |  |  |  |  |  | demonstrated activity |  |
| Cn1c(=O)n(-c2ccc(C(C)(C)C#N)cc2)c2c3cc(-c4cnc5ccccc5c4)ccc3ncc21 [NVP-BEZ-235, 2-methyl-2-(4-(3-methyl-2-oxo-8-(quinolin-3-yl)-2,3-dihydro-1H-imidazo[4,5-c]quinolin-1-yl)phenyl)propanenitrile] |  |  |  |  |  |  |  |  |  | demonstrated activity |
| COc1ccc2c(c1)c(/C=C1\Oc3cc(O)cc(O)c3C1=O)c1n2CCOC1=O [Example I, 10-[(Z)-(4,6-dihydroxy-3-oxo-1-benzofuran-2(3H)-ylidene)methyl]-8-methoxy-3,4-dihydro-1H-[1,4]oxazino[4,3-a]indol-1-one] | 9 nM | 1.1 nM | 24 nM | 5630 nM |  |  |  |  |  |  |
| COc1ccc2c(c1)c(/C=C1\Oc3cc(O)cc(O)c3C1=O)c1n2CCOC1 [M, (2Z)-4,6-dihydroxy-2-[(8-methoxy-3,4-dihydro-1H-[1,4]oxazino[4,3-a]indol-10-yl)methylene]-1-benzofuran-3(2H)-one] | 57 nM | 4.5 nM | < 32 nM | 1910 nM | 1000 nM |  |  |  |  |  |
